Source: patent US20090018111A1, “Novel Antimicrobial Medicament” (priority 2004, published 2009)
Where two headings read alike, the source gives them in different places.

Legend:
[1] = tested on: 18 bacteria (27 standard strains); assay: Sensitivity test, combination effect over the standard strains; format: cell-based; conditions: in combination with compound 1, standard strains
Experimental: (§1) The antibacterial activities were tested against various 18 bacteria (27 standard strains) which are representative bacteria caused clinically infectious disease (Staphylococcus aureus 3 strains, Staphylococcus epidermidis 1 strain, Micrococcus luteus 1 strain, Streptococcus pyogenes 1 strain, Enterococcus faecalis 1 strain, Enterococcus faecium 1 strain, Bacillus subtilis 1 strain, Escherichia coli 3 strains, Klebsiella pneumoniae 1 strain, Proteus mirabilis 1 strain, Proteus vulgaris 2 strains, Pseudomonas aeruginosa 3 strains, Serratia marcescens 2 strains, Enterobacter aerogenes 1 strain, Stenotrophomonas maltophilia 1 strain, Enterobacter cloacae 1 strain, Citrobacter freundii 1 strain, Moraxella catarrhalis 2 strains).
(§2) According to the standard method of Japan Chemotherapeutic Society (Chemotherapy, vol. […], p 76-79 (1981)) the test was carried out using the agar dilution method. After dissolving test samples in distilled water, agar medium containing the test samples was prepared in such a manner that the final concentration became twice serial dilution by pouring serially diluted combination drug solution or a single drug solution into agar medium. As agar medium was used Mueller Hinton Agar medium (MHA). Then, each strain was cultivated over night at 37° C. in an incubator and suspended in buffered saline solution with gelatin (BSG) in the concentration of about 10^6 CFU/ml. The suspension (about 5 μl) containing test strains was inoculated to the medium containing the test samples by Micro Planter.
(§3) When the sample is subjected to sensitivity test, this mixed solution was diluted by twice serial dilution method.
(§4) FIC index based on MIC value was calculated. […] Namely, when FIC index calculated by the following formula is equal or less than 1, the enhanced effect of the combination drug in said ratio is considered as positive. When FIC index is over 1, the enhanced effect of the combination drug in said ratio is considered as negative.
(§5) Formula of FIC index: FIC index=(MIC of Drug A in combination/MIC of Drug A alone)+(MIC of Drug B in combination/MIC of Drug B alone) N.C. in tables means being not calculated.

[2] = tested on: C. freundii GN346; assay: Sensitivity test (agar dilution); format: cell-based, Citrobacter freundii; conditions: Citrobacter freundii, C. freundii GN346
Experimental: as §1, §2, §3
Furthermore, when the drug is solely used, each test sample was used as it is, and diluted by twice serial dilution method from the maximum concentration to the minimum concentration.
as §4, §5

[3] = GN346, drug alone, read-out: MIC alone

Row | Compound | combination effect [1] | MIC ([2]; GN346, Concomitant (PIPC:SM = 1:1), read-out: MIC concomitant) [µg/mL] | MIC [2, 3] [µg/mL] | MIC ([2]; GN346, Concomitant (DRPM:SM = 1:1), read-out: MIC concomitant) [µg/mL] | MIC ([2]; GN346, Concomitant (CAZ:SM = 1:1), read-out: MIC concomitant) [µg/mL] | MIC ([2]; GN346, Concomitant (PAPM:SM = 1:1), read-out: MIC concomitant) [µg/mL]
1 | CCN1CCN(C(=O)N[C@@H](C(=O)N[C@@H]2C(=O)N3[C@@H]2SC(C)(C)[C@@H]3C(=O)O)c2ccccc2)C(=O)C1=O [PIPC, piperacillin] | antagonism was recognized | 8 | 1 | – | – | –
2 | C[C@@H](O)[C@H]1C(=O)N2C(C(=O)O)=C(S[C@@H]3CN[C@H](CNS(N)(=O)=O)C3)[C@H](C)[C@H]12 [DRPM, doripenem] | the combination effect was recognized | – | 0.063 | 0.063 | – | –
3 | CC(C)(O/N=C(\C(=O)N[C@@H]1C(=O)N2C(C(=O)[O-])=C(C[n+]3ccccc3)CS[C@H]12)c1csc(N)n1)C(=O)O [CAZ, ceftazidime] | antagonism was recognized | – | 1 | – | 8 | –
4 | CC(=N)N1CC[C@H](SC2=C(C(=O)O)N3C(=O)[C@H]([C@@H](C)O)[C@H]3C2)C1 [PAPM, panipenem] | the combination effect was recognized | – | 0.5 | – | – | 0.25
